T1: CYP2C8 (Homo sapiens, UniProt P10632)
T1 sequence (P10632 1-490): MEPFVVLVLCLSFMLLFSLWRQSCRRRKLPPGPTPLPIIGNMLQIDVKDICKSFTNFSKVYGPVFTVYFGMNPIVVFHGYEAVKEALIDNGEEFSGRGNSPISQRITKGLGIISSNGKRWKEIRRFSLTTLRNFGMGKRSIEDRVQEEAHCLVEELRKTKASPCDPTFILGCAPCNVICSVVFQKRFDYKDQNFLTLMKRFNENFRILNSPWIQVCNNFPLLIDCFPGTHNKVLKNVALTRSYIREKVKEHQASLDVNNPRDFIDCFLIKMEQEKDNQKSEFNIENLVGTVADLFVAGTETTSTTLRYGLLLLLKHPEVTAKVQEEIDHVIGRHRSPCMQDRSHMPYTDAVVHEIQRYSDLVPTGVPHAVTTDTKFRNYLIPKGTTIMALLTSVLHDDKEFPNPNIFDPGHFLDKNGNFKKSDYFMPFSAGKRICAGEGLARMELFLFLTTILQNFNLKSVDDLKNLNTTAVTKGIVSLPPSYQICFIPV

B1: CYP2C9 (Homo sapiens) (protein)
chain: MDSLVVLVLCLSCLLLLSLWRQSSGRGKLPPGPTPLPVIGNILQIGIKDISKSLTNLSKVYGPVFTLYFGLKPIVVLHGYEAVKEALIDLGEEFSGRGIFPLAERANRGFGIVFSNGKKWKEIRRFSLMTLRNFGMGKRSIEDRVQEEARCLVEELRKTKASPCDPTFILGCAPCNVICSIIFHKRFDYKDQQFLNLMEKLNENIKILSSPWIQICNNFSPIIDYFPGTHNKLLKNVAFMKSYILEKVKEHQESMDMNNPQDFIDCFLMKMEKEKHNQPSEFTIESLENTAVDLFGAGTETTSTTLRYALLLLLKHPEVTAKVQEEIERVIGRNRSPCMQDRSHMPYTDAVVHEVQRYIDLLPTSLPHAVTCDIKFRNYLIPKGTTILISLTSVLHDNKEFPNPEMFDPHHFLDEGGNFKKSKYFMPFSAGKRICVGEALAGMELFLFLTSILQNFNLKSLVDPKNLDTTPVVNGFASVPPFYQLCFIPV
B2: CYP2C8 (Homo sapiens) (protein)
chain: T1 sequence (P10632 1-490)

Assays:
CYP3A4 = CYP3A4 (Homo sapiens, UniProt P08684); test: Relative CYP contribution to hepatic bioactivation and detoxification, CYP3A4; assay type: in vitro ADME; conditions: for Bioactivation Percent: CYP3A4 contribution to total CLbioact of the NSAID; for Detoxification Percent: CYP3A4 contribution to total CLdetox of the NSAID
CYP2C9 = CYP2C9 (Homo sapiens, UniProt P11712); test: Relative CYP contribution to hepatic bioactivation and detoxification, CYP2C9; assay type: in vitro ADME; conditions: for Bioactivation Percent: CYP2C9 contribution to total CLbioact of the NSAID; for Detoxification Percent: CYP2C9 contribution to total CLdetox of the NSAID
CYP2C19 = CYP2C19 (Homo sapiens, UniProt P33261); test: Relative CYP contribution to hepatic bioactivation and detoxification, CYP2C19; assay type: in vitro ADME; conditions: for Bioactivation Percent: CYP2C19 contribution to total CLbioact of the NSAID; for Detoxification Percent: CYP2C19 contribution to total CLdetox of the NSAID
CYP2C8 = target: T1, CYP2C8; test: Relative CYP contribution to hepatic bioactivation and detoxification, CYP2C8; assay type: in vitro ADME; conditions: for Bioactivation Percent: CYP2C8 contribution to total CLbioact of the NSAID; for Detoxification Percent: CYP2C8 contribution to total CLdetox of the NSAID
[1] = substrate: Cc1ccc(Nc2c(F)cccc2Cl)c(CC(=O)O)c1; test: cells, lysate or membranes named; conditions: other: CYP2C9; adduct Unk; 95% CI in parentheses; pH 7.4
[2] = substrate: Cc1cccc(Nc2ccccc2C(=O)O)c1C; test: cells, lysate or membranes named; conditions: other: CYP2C9, path 1, 2, 95% CI in parentheses, pH 7.4
[3] = substrate: Cc1c(Cl)cccc1Nc1ccccc1C(=O)O; test: cells, lysate or membranes named; conditions: other: CYP2C9, path 1, 2, 95% CI in parentheses, pH 7.4
[4] = substrate: Cc1ccc(Cl)c(Nc2ccccc2C(=O)O)c1Cl; test: cells, lysate or membranes named; conditions: other: CYP2C9; metabolite M9, path 4; 95% CI in parentheses; pH 7.4
[5] = substrate: O=C(O)COC(=O)Cc1ccccc1Nc1c(Cl)cccc1Cl; test: cells, lysate or membranes named; conditions: other: CYP2C9, 95% CI in parentheses, pH 7.4
[6] = substrate: Cc1cccc(Nc2ccccc2C(=O)O)c1C; test: Steady-state kinetics of overall NSAID metabolism; assay type: in vitro ADME, human; conditions: other: overall metabolism (depletion) by CYP2C8; 95% CI in parentheses; pH 7.4
[7] = substrate: O=C(O)COC(=O)Cc1ccccc1Nc1c(Cl)cccc1Cl; test: Steady-state kinetics of overall NSAID metabolism; assay type: in vitro ADME, human; conditions: other: overall metabolism (depletion) by CYP2C8; 95% CI in parentheses; pH 7.4
[8] = substrate: Cc1cccc(Nc2ccccc2C(=O)O)c1C; test: Steady-state bioactivation kinetics; assay type: in vitro ADME, human; conditions: other: CYP2C8, path 1, 2, 95% CI in parentheses, pH 7.4
[9] = substrate: O=C(O)COC(=O)Cc1ccccc1Nc1c(Cl)cccc1Cl; test: Steady-state bioactivation kinetics; assay type: in vitro ADME, human; conditions: other: CYP2C8, 95% CI in parentheses, pH 7.4

Chain of CYP3A4 (P08684 whole entry): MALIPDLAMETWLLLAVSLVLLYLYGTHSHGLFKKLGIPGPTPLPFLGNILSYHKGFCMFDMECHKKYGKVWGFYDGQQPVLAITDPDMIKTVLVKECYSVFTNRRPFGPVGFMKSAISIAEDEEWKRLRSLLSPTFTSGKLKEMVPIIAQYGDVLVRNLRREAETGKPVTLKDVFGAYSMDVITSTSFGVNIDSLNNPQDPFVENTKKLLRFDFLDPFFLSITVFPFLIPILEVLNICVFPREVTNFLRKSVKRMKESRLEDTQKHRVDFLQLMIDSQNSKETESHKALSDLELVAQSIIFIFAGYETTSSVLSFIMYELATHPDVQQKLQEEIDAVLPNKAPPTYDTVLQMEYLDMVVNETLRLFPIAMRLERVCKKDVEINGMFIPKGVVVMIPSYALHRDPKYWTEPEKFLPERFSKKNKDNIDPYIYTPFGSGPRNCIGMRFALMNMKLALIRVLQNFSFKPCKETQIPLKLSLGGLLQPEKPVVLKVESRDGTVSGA
Chain of CYP2C19 (P33261 whole entry): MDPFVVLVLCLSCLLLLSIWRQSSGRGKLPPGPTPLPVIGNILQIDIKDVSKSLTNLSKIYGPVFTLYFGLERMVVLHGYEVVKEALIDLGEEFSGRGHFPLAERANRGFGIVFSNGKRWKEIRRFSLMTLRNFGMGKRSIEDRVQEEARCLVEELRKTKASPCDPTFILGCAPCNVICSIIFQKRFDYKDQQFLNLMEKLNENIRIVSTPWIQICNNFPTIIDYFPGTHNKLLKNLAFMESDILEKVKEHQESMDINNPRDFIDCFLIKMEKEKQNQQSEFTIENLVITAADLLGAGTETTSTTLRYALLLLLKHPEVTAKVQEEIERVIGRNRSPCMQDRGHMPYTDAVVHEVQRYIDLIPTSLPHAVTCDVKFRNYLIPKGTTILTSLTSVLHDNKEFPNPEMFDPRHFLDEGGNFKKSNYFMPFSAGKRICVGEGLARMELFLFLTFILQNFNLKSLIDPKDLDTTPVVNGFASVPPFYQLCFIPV

Molecule | Bioactivation Percent (CYP3A4) [%] | Detoxification Percent (CYP3A4) [%] | Bioactivation Percent (CYP2C9) [%] | Detoxification Percent (CYP2C9) [%] | Bioactivation Percent (CYP2C19) [%] | Detoxification Percent (CYP2C19) [%] | also measured
Cc1c(Cl)cccc1Nc1ccccc1C(=O)O [TOL, tolfenamic acid] | 25.2 | 60.9 | 72.8 | 35.5 | 2.0 | 3.6 | 
Cc1ccc(Cl)c(Nc2ccccc2C(=O)O)c1Cl [MEC, meclofenamic acid] | 24.7 | 61.6 | 55.7 | 36.5 | 19.6 | 1.9 | 
O=C(O)c1ccccc1Nc1cccc(C(F)(F)F)c1 [FLU, flufenamic acid] | 55.9 | 69.0 | 42.3 | 27.6 | 1.7 | 3.4 | 
O=C(O)COC(=O)Cc1ccccc1Nc1c(Cl)cccc1Cl [ACE, aceclofenac] | 1.2 | 60.4 | 94.3 | 30.7 | 2.0 | 1.6 | Bioactivation Percent (CYP2C8): 2.5%; Detoxification Percent (CYP2C8): 7.3%
Cc1cccc(Nc2ccccc2C(=O)O)c1C [MEF, mefenamic acid] | 6.0 | 56.4 | 91.4 | 36.9 | 1.2 | 2.1 | Bioactivation Percent (CYP2C8): 1.4%; Detoxification Percent (CYP2C8): 4.6%
Cc1ccc(Nc2c(F)cccc2Cl)c(CC(=O)O)c1 [LUM, lumiracoxib] | 3.7 | 68.0 | 95.8 | 23.4 | 0.5 | 8.6 | 
B1 |  |  |  |  |  |  | Km [1]: 27.0 (22.4–32.3) μM; kcat [1]: 23.5 (22.5–24.5) pmol/min/nmol protein; Km ([2]; metabolite M2/M4a): 17.5 (13.4–22.7) μM; kcat ([2]; metabolite M2/M4a): 25.6 (24.2–27.0) pmol/min/nmol protein; Km ([2]; metabolite M2/M4b): 12.9 (10.1–16.5) μM; kcat ([2]; metabolite M2/M4b): 35.7 (34.0–37.4) pmol/min/nmol protein; Km ([3]; metabolite M2/M4a): 6.5 (5.2–8.0) μM; kcat ([3]; metabolite M2/M4a): 15.2 (14.6–15.9) pmol/min/nmol protein; Km ([3]; metabolite M2/M4b): 6.9 (5.8–8.8) μM; kcat ([3]; metabolite M2/M4b): 16.1 (15.6–16.7) pmol/min/nmol protein; Km [4]: 5.5 (4.3–7.1) μM; kcat [4]: 5.2 (5.0–5.4) pmol/min/nmol protein; Km ([5]; adduct Unk): 7.9 (5.8–10.7) μM; kcat ([5]; adduct Unk): 10.2 (9.7–10.9) pmol/min/nmol protein; Km ([5]; metabolite M9, path 4): 23.8 (19.4–28.9) μM; kcat ([5]; metabolite M9, path 4): 68.5 (65.0–72.2) pmol/min/nmol protein
B2 |  |  |  |  |  |  | Km [6]: 160 (140–190) μM; kcat [6]: 2390 (2230–2560) pmol/min/nmol protein; Km [7]: 110 (96–130) μM; kcat [7]: 1740 (1640–1850) pmol/min/nmol protein; Km ([8]; metabolite M2/M4a): 51.9 µM; kcat ([8]; metabolite M2/M4a): 5.6 (5.5–5.8) pmol/min/nmol protein; Km ([8]; metabolite M2/M4b): 75.6 µM; kcat ([8]; metabolite M2/M4b): 5.4 (5.2–5.5) pmol/min/nmol protein; Km ([9]; metabolite M2/M4, path 1, 2): 6.3 µM; kcat ([9]; metabolite M2/M4, path 1, 2): 1.4 (1.3–1.5) pmol/min/nmol protein; Km ([9]; metabolite M6, path 3): 9.4 µM; kcat ([9]; metabolite M6, path 3): 4.0 (3.9–4.1) pmol/min/nmol protein; Km ([9]; metabolite M9, path 4): 6.7 µM; kcat ([9]; metabolite M9, path 4): 1.7 (1.6–1.8) pmol/min/nmol protein
